Assay results reported in PMC10732398 (PLOS Pathogens, 2023).

Key:
[1] = system: ⍺4β7; assay: SPR binding kinetics: recombinant ⍺4β7 passed over ligand-coated surfaces (S1 Table); conditions: SPR Biacore 3000, ligand immobilized, ⍺4β7 analyte, HBS pH 7.4, 1 mM MnCl2, 25°C
Procedure: To measure the specific affinity of CD4–⍺4β7 interactions we developed a surface plasmon resonance (SPR) -based assay in which recombinant ⍺4β7 was passed over a surface coated with a 23 kD D1D2 protein (aa 1–183). For comparison we prepared surfaces with recombinant MAdCAM-Ig, VCAM-Ig, monomeric gp120, and a SOSIP env trimer (S1 Table). Assays were carried out in the presence of MnCl2 to present ⍺4β7 in an active conformation. […] This rate of dissociation was similar to that of both MAdCAM-Ig and VCAM-Ig with ⍺4β7 and is indicative of a relatively high-affinity interaction.
Experiments were performed using a Biacore 3000 instrument (Cytiva Life Sciences) using CM4 or CM5 sensor chips. The data were evaluated using BIAevaluation 4.1.1 software (Cytiva Life Sciences). The chip surface was activated by injecting 35 μl of a 1:1 mixture of 0.05 M N-hydroxysuccinimide and 0.2 M N-ethyl-N-(dimethylaminopropyl) carbodiimide at 5 μl/min. NeutrAvidin, HIV gp120, sCD4 (D1D2) or Hu-MAdCAM-Ig (R&D Systems) at concentrations of 5 μg/ml in 10mM NaOAc, pH 4.5, were immobilized to 250–750 resonance units (RU). After the proteins were immobilized to the desired densities, unreacted sites were blocked with 35 μl of 1 M Tris-HCl (pH 8.0). Biotinylated cyclic V2 peptides (1 μg/ml in 20 mM Tris-HCl, pH 8.0) were bound to the NeutrAvidin surfaces to densities of approximately 250–300 RU. One surface was activated and blocked without ligand as a control surface for non-specific binding. Signal from the control surface was subsequently subtracted. Running buffer was HBS (pH 7.4), 1 mM MnCl2, 0.005% Tween- 20, 0.05% soluble carboxymethyl-dextran. Binding experiments were carried out at a flow rate of 25 μl/min at 25°C. After a 2 min injection, the surface was washed for an additional 2 min in running buffer allowing dissociation of the bound ligand from the surface. The surfaces were regenerated by multiple injections of 4.5 M MgCl2 at a flow rate of 100 μl/min. Inhibition of ⍺4β7 binding by linear V2-loop and CD4 derived peptides was carried out by pre-incubating ⍺4β7 with the peptides in running buffer at the indicated concentrations for 2 hours at room temperature prior to passing them over the prepared surfaces as described above. Cross-inhibition experiments were performed by passing either buffer or the listed analytes over a surface to which sCD4 (D1D2) had been immobilized, followed by a secondary sequential injection of ⍺4β7. The ability of each analyte to inhibit either itself or ⍺4β7 was determined by comparing the binding of ⍺4β7 in the absence or presence of the listed pre-bound analytes as previously described. Illustration of the dynamic range of range of linear peptide inhibition assays is provided in S4 Fig.

[2] = system: ⍺4β7 transfected 293T cells; assay: Flow cytometry: staining of 293T cells co-transfected with ⍺4 and β7 expression vectors; format: binding; conditions: PE-labelled ligand, Fig 1C
Description: The FRET/FLIM results described above indicate a direct interaction between CD4 and ⍺4β7. […] To this end we employed a fluorescently labelled soluble dodecameric CD4 Ig fusion protein, termed D1D2-Ig⍺tp, that includes the two N-terminal Ig-like domains of CD4 (D1D2, aa 1–180), followed by IgG1 CH2 and CH3 domains, followed by the 18 aa tail-piece domain of IgA (⍺tp). In this oligomer, 12 D1D2-Igs are arranged in a disulphide linked daisy-chain (Fig 1A). Primary CD4^+ T cells, some of which express ⍺4β7, were reacted with D1D2-Ig⍺tp and analyzed by flow-cytometry. A second oligomeric Ig fusion protein, MicA-Ig⍺tp, which includes the two N-terminal domains of MicA, was employed as a specificity control. […] MAdCAM-Ig was employed as a positive control. […] We conclude that an oligomeric soluble CD4 that includes only its two N-terminal domains can bind to ⍺4β7 in a specific way.
Fig 1 Binding of soluble CD4 to ⍺4β7 on CD4^+ T cells. (A) Schematic of D1D2-Ig⍺tp. […] X-axis indicates geometric mean fluorescence intensity (gMFI). […]
Cells were stained with fluoresceine conjugated mAbs or recombinant proteins using standard procedures preceded by Fc receptor blocking with human IgG. […] Data were acquired using a FACSCanto II (BD Biosciences) and analyzed with FlowJo software (BD Biosciences). […]

Substance: MAdCAM-Ig: recombinant MAdCAM-1 Ig fusion, R&D Systems [reference compound]
- KA [1]: 1.12e+08 M⁻¹
- ka [1]: 96700 M⁻¹ s⁻¹
- kd [1]: 0.000863 s⁻¹
- binding to ⍺4β7 transfected versus untransfected 293T cells (in words) [2]: bound preferentially to ⍺4β7 transfected cells
